Several values for one entry are separate records, joined by “and”; a condition that tells them apart may be missing. Identical values can stand only once. Entries after “also recorded” stand apart in the source; their conditions may differ.
What was measured:
[1] = cited from earlier work
[2] = In vitro release assay of probes 13–17 by HPLC in buffers simulating the GIT
Procedure: (§1) Test solutions for probes 13–17 were prepared at 25 µM in a 1:1 mixture of ethanol and the respective buffer. Samples were incubated at 37 °C, then analysed by HPLC using an Agilent 1260 Infinity system, with conditions as follows: Agilent ZORBAX Eclipse Plus C18 Rapid Resolution column, 3.5 μm (4.6 × 100 mm), 95 Å pore size; column temperature, 35 °C; injection volume, 2 μL; flow rate, 1.0 mL min^−1; gradient elution from 5–100% solvent B (0.1% TFA in MeCN) in solvent A (0.1% TFA in ultrapure water) over 9 min, then hold for 1 min at 100% B; UV detection at two wavelengths (254 and 214 nm). The total run time was 10 min, and the retention times of the model compounds CTG and DCM-OH were 4.28 and 6.16 min, respectively. The retention times of probes 13–17 were 4.41, 4.53, 4.58, 5.97, and 6.04 min, respectively. Calibration curves of free fluorophore were constructed at pH values of 1.2, 5.0, 6.5, and 7.5 over the concentration range of 10–100 µM. A concentration of 25 μM was selected to run in the assay as it gave a good instrument response at the selected wavelength. The data at each pH value was fitted by linear regression, yielding equations of the form: y = ax ± b, where y is the peak area and x is the corresponding concentration in µM. Furthermore, the correlation coefficient (R^2) was ≥0.999 in each case, confirming the linearity of the method used under the specified conditions.
(§2) Release assays for probes 13–17 were performed in vitro using pH and temperature conditions chosen to simulate the GIT, with analysis by HPLC. We used KCl/HCl buffer (pH 1.2) and acetate buffer (pH 5.0) to simulate the pH of the stomach and the duodenum, respectively, while PBS (pH 7.5) and phosphate buffer (pH 6.5) were used to mimic the pH of the lower small intestine and the colon. The compounds were dissolved in 1:1 ethanol/buffer and incubated at 37 °C. Aliquots were taken at different time points and analysed by HPLC and LC/MS, as described in Section 2.2. […] Thus, the aforementioned compounds were incubated at pH 1.2 for 5 h to test their stability under conditions simulating the stomach. […] Then, the stability of the probes was tested in simulated duodenum conditions for 30–40 min, reflecting the reported transit time in the duodenum [26].

[3] = parameters: method as in PMID 33979164; settings: cited from earlier work
[4] = parameters: method as in PMID 33979164; settings: cited from earlier work; remark: listed apart in the source
[5] = parameters: method as in PMID 33979164; settings: cited from earlier work; remark: listed apart in the source
[6] = In vitro release of Msl from Msl prodrugs by HPLC in buffers simulating the GIT; assay type: physicochemical; settings: for release of Msl: colon-like conditions (pH 6.5); for Msl release / prodrug stability: 37 °C; for prodrug remained intact: simulated upper GIT conditions
Procedure: We chose Msl as a starting point for putting our prodrug concept into practice. […] Therefore, a new methodology was developed in which prodrug 21 was incubated in 1:1 ethanol/buffer and the HPLC analysis was run with UV detection at 310 nm, as detailed in the Supplementary Materials.
Then, the same compound was incubated at pH 7.5 and 6.5 to measure its stability under conditions mimicking the small intestine and colon, respectively. […] We believed that the formaldehyde released after cyclisation of the linker had initiated the side-reaction according to the mechanism described in detail in Supplementary Materials and supported by literature (Scheme S3).

[7] = as above; assay type: physicochemical; settings: pH 7.5, 37 °C, over 2 h, water/buffer 1:1, small intestine-like
[8] = parameters: method as in PMID 2219958; settings: cited from earlier work
[9] = Fluorometric assay of the stability of probes 13 and 16 at pH 7.5 and 6.5; assay type: physicochemical
Excerpt: page 2: 1. Stability of probe 13 at pH 7.5 and 6.5 using the spectrofluorometric assay. Principal: CTG's fluorescence is reversibly quenched or shifted to another wavelength when the phenol group is conjugated to the pH-sensitive linkers. Upon cyclization of the linker and the release of the free phenol, the fluorescence will be restored (on-mode). Fluorescence can be measured to follow the release of the payload, which is the fluorophore itself. The optical properties of the free fluorophore were measured in 50% DMSO/buffer at pHs 7.5, and 6.5. Since the fluorescence- based assay depends on the difference in fluorescence properties between the free fluorophore and its conjugates, the excitation wavelength must be carefully chosen. […] Secondly, the wavelength that gave a reasonable absorbance rather than maximum absorbance should be chosen to avoid exceeding the detector limits. Finally, a long distance between the excitation and emission wavelengths is preferable to minimize the background fluorescence. Accordingly, the in vitro tests were conducted by measuring the fluorescence at 555 nm after excitation of the probes at 500 nm, as this wavelength achieved the previous requirements. […] The microplate was incubated at 37 °C, and the fluorescence (em: 555 nm, ex: 500 nm) was recorded at every time point until the full release of CTG was obtained. […]

[10] = buffer, pH 5
Procedure: as §1, §2

[11] = pH 1.2 (KCl/HCl buffer/EtOH 1:1), 5 h, 37 °C, 25 µM, stomach-like

Molecule: Cc1cc(C(=O)O)ccc1-c1c2ccc(=O)cc-2oc2cc(O)ccc12 [CTG, 4-Carboxy-2-methyl Tokyo Green]
- pKa [1]: 4.33

Molecule: N#CC(C#N)=C1C=C(/C=C/c2ccc(O)cc2)Oc2ccccc21 [DCM-OH, Dicyanomethylene-4H-pyran dye]
- pKa [1]: 7.21

Molecule: Nc1ccc(O)c(C(=O)O)c1 [Msl, Mesalamine]
- pKa of aromatic amino group (–NH3+) [1]: 6
- pKa of carboxylic group (–COOH) [1]: 3
- pKa of phenolic group (–OH) [1]: 13.9

Molecule: C#CCCCNCCCCOC(=O)OCOc1ccc2c(-c3ccc(C(=O)O)cc3C)c3ccc(=O)cc-3oc2c1.Cl [Probe 15, N-(4-(((((9-(4-Carboxy-2-methylphenyl)-3-oxo-3H-xanthen-6yl)oxy)methoxy)carbonyl)oxy)butyl)pent-4-yn-1-aminium chloride]
- half-life at 25 µM ([2]; PBS, pH 7.5): 2.4 ± 0.37 h
- half-life at 25 µM ([2]; acetate buffer, pH 5): > 0.583 h
- CTG payload released (sustained release) ([2]; colon-like conditions (pH 6.5), over 38 h): > 90%
- fluorophore release / stability under stomach-like conditions ([2]; pH 1.2, 37 °C): excellent stability; also recorded: no detectable fluorophore release; also recorded: stable
- fluorophore release / stability under duodenum-like conditions ([2]; pH 5.0, 37 °C): excellent stability; also recorded: no detectable fluorophore release; also recorded: stable
- half-life at 25 µM ([2]; phosphate buffer, pH 6.5): 13.2 ± 0.54 h
- CTG payload protected from being released ([2]; small intestine-like conditions, pH 7.5, 2 h): 60%

Molecule: C#CCCCNCCCOC(=O)OCOc1ccc(/C=C/C2=CC(=C(C#N)C#N)c3ccccc3O2)cc1.Cl [Probe 17, (E)-N-(3-((((4-(2-(4-(Dicyanomethylene)-4H-chromen-2-yl)vinyl)phenoxy)methoxy)carbonyl)oxy)propyl)pent-4-yn-1-aminium chloride]
- half-life at 25 µM ([2]; PBS, pH 7.5): 0.113 ± 0.012 h
- half-life at 25 µM ([2]; acetate buffer, pH 5): 16.4 ± 1.52 h
- fluorophore release [2, 11]: 0.5%
- free fluorophore detected ([2]; pH 5.0 (acetate buffer/EtOH 1:1), at 35 min, 37 °C): 7%
- time to full fluorophore release ([2]; pH 6.5, mimicking the colon, 37 °C): 170 min
- time to achieve complete fluorophore release ([2]; pH 7.5, small intestine-like, 37 °C): 40 min
- half-life at 25 µM ([2]; phosphate buffer, pH 6.5): 0.467 ± 0.0257 h

Molecule: CNCCCOC(=O)OCOc1c(-c2ccc(Oc3ccc(OC(F)(F)F)cc3)cc2F)c(C)nc2cc(OC)c(Cl)cc12 [Prodrug 2]
- stability under stomach-like conditions [3]: stable
- aqueous solubility compared with the parent drug [4]: improved aqueous solubility
- oral bioavailability compared with the parent drug [5]: enhanced oral bioavailability

Molecule: C#CCCCNCCCCOC(=O)OCOc1ccc(N)cc1C(=O)O.Cc1ccc(S(=O)(=O)O)cc1.Cc1ccc(S(=O)(=O)O)cc1 [Prodrug 21, 3-Carboxy-4-((((4-(pent-4-yn-1-ylammonio)butoxy)carbonyl)oxy)methoxy)benzeneaminium-di(4-methylbenzenesulfonate)]
- release of Msl ([6]; after 24 h): 36%
- release of Msl ([6]; after 48 h): 61–68% and 61%
- release of Msl ([6]; after 6 d): 93%
- Msl release / prodrug stability ([6]; pH 1.2, 5 h, stomach-like): no Msl was released
- Msl release / prodrug stability ([6]; pH 5.0, 35 min, duodenum-like): no Msl was released
- prodrug remained intact [6]: 77–80%
- Msl payload released [7]: 20%

Molecule: C#CCCCNCCCOC(=O)OCOc1ccc(N)cc1C(=O)O.Cc1ccc(S(=O)(=O)O)cc1.Cc1ccc(S(=O)(=O)O)cc1 [Prodrug 22, 3-Carboxy-4-((((3-(pent-4-yn-1-ylammonio)propoxy)carbonyl)oxy)methoxy)benzeneaminium-di(4-methylbenzenesulfonate)]
- release of Msl ([6]; after 48 h): 61–68% and 68%
- Msl release / prodrug stability ([6]; pH 1.2, 5 h, stomach-like): fully intact
- Msl release / prodrug stability ([6]; pH 5.0, 35 min, duodenum-like): fully intact
- prodrug remained intact [6]: 77–80%
- Msl payload released [7]: 23.5%

Molecule: CCOC(=O)OC(C)OC1=C(C(=O)Nc2ccccn2)N(C)S(=O)(=O)c2ccccc21 (centres unmarked) [ampiroxicam]
- t½ ([8]; pH 1): ≥ 50 h
- t½ (hydrolysis) ([8]; pH 6.0–8.5): ≥ 8 h

Molecule: (E)-N-(3-((((4-(2-(4-(dicyanomethylene)-4H-chromen-2-yl)vinyl)phenoxy)methoxy)carbonyl)oxy)propyl)pent-4-yn-1-aminium chloride [Probe 16]
- time to conversion to the free fluorophore ([9]; at both pH 6.5 and pH 7.5, buffer/DMSO 1:1, 37 °C): ≤ 3 min
- fluorophore release in fluorometric assay ([9]; pH 7.5 and 6.5, buffer/DMSO 1:1, 37 °C): released immediately
- half-life [10]: 0.343 ± 0.0035 h
- fluorophore release [2, 11]: 3%
- fluorophore release ([2]; pH 5.0 (acetate buffer/EtOH 1:1), 30–40 min, 37 °C, duodenum-like): ~ 66%

Reference: PMC9860859, “Design, Development, and Optimisation of Smart Linker Chemistry for Targeted Colonic Delivery—In Vitro Evaluation” (Pharmaceutics, 2023)
